In one series the test system is B16 melanoma. The series is classed as in vivo, BDF1 mice. To be noted: for IR (%) on tumor size / IR (%) on tumor weight / Tumor weight day 20 / Tumor size day 8 / Tumor size day 12 / Tumor size day 16 / Tumor size day 20: days 8, 12, 16; for IR (%) on tumor size / IR (%) on tumor weight: day 20; for Tumor weight day 20: in g (unit assumed); for Tumor size day 8 / Tumor size day 12 / Tumor size day 16 / Tumor size day 20: in mm³ (unit assumed). The protocol: To investigate tumor growth inhibitory effects against B16 melanoma, a certain number of B16 cells(in vitro) was subcutaneously inoculated for propagation and tumor cells were resected from animals scrificed by cervical dislocation on 14th day after tumor was implanted.
(§1) Male BDF1 mice, weighing about 20 grams, were used. Animal rooms were controlled at 23±2° C. and 60±5% relative humidity, under HEPA filter, and maintained in specific pathogen free (SPF).
10^6 of B16 melanoma cell, obtained in vitro form, were subcutaneously in BDF1 mice for propagation. The B16 melanomas were transfered on day 14. The fresh tumors except for necrotized center were aseptically resected from tumor-bearing mice sacrificed by cervical dislocation.
The tumor cells were passaged at least […] three times prior to use in the test.
1 g subcutaneously donor tumor to be subcutaneously was homogenized in cold sterilized saline to give a final concentration of 1 g/10 ml. The 1:10 tumor suspension is injected into all BDF1 mice subcutaneously using 0.2 ml/mouse.
The mice were subcutaneously implanted with such homogenized solution and 7 to 8th day after the tumor implantation, the mice having a certain size of tumors were selected for experiments. Each experimental group were administered with the sample (0.1 ml/10 g) on 8th, 12th and 16th day after the inoculation of tumor. Eight mice were used for each experimental group.
The size of the tumors was calculated by direct measurement of the diameter of the tumors, using the formula.
Where b is the largest diameter and a is the diameter perpendicular to b and growth curves were thus obtained. (FIG. 2)
The inhibition rate of tumor growth on the basis of tumor size was calculated according to the formula.
TWt is the mean tumor volume(weight) of sample-treated groups.
TWc is the mean tumor volume(weight) of control group.

For series [1] the following is noted: background art; cited from earlier work.
In a further series the test system is topoisomerase I. To be noted: background art; cited from earlier work.
The next series concerns L1210 leukemia. Nature of the series: Prolongation effects of life span against L1210-bearing mice. To be noted: for 30 days survivor / ILS(%) / Survival days MST / B.W. Change: i.p., days 1, 3, 5; for B.W. Change: day 1 to day 5. The series is classed as in vivo, BDF1 mice. The protocol:
Antitumor activities were measured through the experiments on prolongation effects of life span against L1210-bearing mice and tumor growth inhibitory effects against B16-bearing mice. To evaluate the antitumor activities on L1210 leukemia, a certain number of L1210 cells (in vitro) was intraperitoneally inoculated for propagation and the L1210 cells in ascites were harvested from animals sacrificed by cervical dislocation on 7th day after tumor was implanted.
as §1
5×10^5 of L1210 leukemia cell, obtained in vitro form, were intraperitoneally inoculated in BDF1 mice for propagation. The L1210 tumor cells in ascites were aseptically harvested from BDF1 mice sacrificed by cervical dislocation on 7th day after tumor implantation.
The tumor cells were passaged at least three times prior to use in the test.
5×10^5 cell were intraperitoneally inoculated into BDF1 mice on day 0 and the sample ([…]) were intraperitoneally administration on days 1, 3 and 5. six mice were used for each experimental group.
Antitumor activities were evaluated by the mean survival time of a group of mice and also expressed by the ILS(%) value and the mean animal weights for day 1 and day 5.
Increased Life span (ILS)
ILS(%)={(MST of sample treated group/MST of solvent group)-1}×100

The source of these data is patent US6265413A, “Camptothecin compounds and a method of preparation thereof” (priority 1995, dated 2001).

Entries after “also recorded” stand apart in the source; their conditions may differ. Where two headings read alike, the source gives them in different places.

As to `CC[C@@]1(O)C(=O)OCc2c1cc1n(c2=O)Cc2cc3ccccc3nc2-1` [Camptothecin, camptothecin], in the series with B16 melanoma (10 mg/kg), the “IR (%) on tumor size” value amounted to 57.8%, the “IR (%) on tumor weight” value turned out to be 59%, the “Tumor weight day 20” value was 1.61 ± 0.30 and the “Tumor size day 8” value was determined as 85.95 ± 13.15. In the series with B16 melanoma (10 mg/kg), the “Tumor size day 12” value was found to be 458.56 ± 53.87, the “Tumor size day 16” value is listed as 1035.98 ± 129.36 and the “Tumor size day 20” value is recorded as 1775.50 ± 300.91. The “toxicity in clinical trial” value in series [1] is given as “severe toxicity”. Moreover, the “mode of action on topoisomerase I” value in the series with topoisomerase I is given as “specific mode of action to inhibit topoisomerase I; also recorded: binds covalently with topoisomerase I”.

As for `CCC1(O)C(=O)OCc2c1cc1n(c2=O)Cc2c-1nc1ccccc1c2CCN(Cc1ccccc1)C(=O)OCc1ccccc1` (racemic) [Example 18, dl-7-[2-(N-benzyl-N-carbobenzyloxyamino)ethyl]camptothecin], in the series on L1210 leukemia (total dose 10 mg/kg), the 30 days survivor is 0/6, the “ILS(%)” value amounted to 33%, the “Survival days MST” value is 13.00 days and the “B.W. Change” value is listed as -0.25 g. Besides, in the series with L1210 leukemia (total dose 50 mg/kg), the 30 days survivor is on record as 0/6, the “ILS(%)” value stood at 64%, the “Survival days MST” value was found to be 16.00 days and the “B.W. Change” value is on record as -0.80 g.

For the molecule `CCc1c2c(nc3ccc(OC(=O)N4CCC(N5CCCCC5)CC4)cc13)-c1cc3c(c(=O)n1C2)COC(=O)[C@]3(O)CC` [CPT-11], the “antineoplastic activity in clinical trial / treatment” value in series [1] is recorded as “excellent antineoplastic activities”.

For `CCC1(O)C(=O)OCc2c1cc1n(c2=O)Cc2c-1nc1ccccc1c2CCNC(C)C` (racemic) [Example 30, dl-7-[2-(N-isopropylamino)ethyl]camptothecin], the “ILS(%) and dose range, comparison in words” value with L1210 leukemia (compared with other compounds / camptothecin (FIG. 1)) was “better dose dependency and ILS(%) than other compound; also recorded: higher ILS(%) and wider range where the effect was siginificant”. Besides, in the series with L1210 leukemia (total dose 8.75 mg/kg), the 30 days survivor is recorded as 0/6, the “ILS(%)” value stood at 58.7%, the “Survival days MST” value is reported as 15.67 days and the “B.W. Change” value is “+0.7 g”. In addition, in the series on L1210 leukemia (total dose 10 mg/kg), the 30 days survivor was 0/6, the “ILS(%)” value is 42%, the “Survival days MST” value was 13.00 days and the “B.W. Change” value was -0.71 g. Besides, in the series with L1210 leukemia (total dose 17.5 mg/kg), the 30 days survivor is reported as 0/6, the “Survival days MST” value turned out to be 17.75 days and the “B.W. Change” value is “+0.45 g”. Also, in the series on L1210 leukemia (total dose 35 mg/kg), the 30 days survivor is 0/6, the “ILS(%)” value was found to be 92.4%, the “Survival days MST” value is 19.00 days and the “B.W. Change” value is -0.12 g. Also, in the series on L1210 leukemia (total dose 50 mg/kg), the 30 days survivor is 0/6, the “ILS(%)” value was found to be 119%, the “Survival days MST” value turned out to be 20.00 days and the “B.W. Change” value was -0.57 g. Moreover, in the series on L1210 leukemia (total dose 70 mg/kg), the 30 days survivor is reported as 0/6, the “ILS(%)” value amounted to 143%, the “Survival days MST” value is reported as 24.00 days and the “B.W. Change” value is given as -0.79 g. In the series on L1210 leukemia (total dose 140 mg/kg), the 30 days survivor is reported as 0/6, the “ILS(%)” value is reported as 110%, the “Survival days MST” value was determined as 20.75 days and the “B.W. Change” value is given as -0.93 g. Further, in the series on B16 melanoma (35 mg/kg), the “IR (%) on tumor size” value amounted to 27%, the “IR (%) on tumor weight” value came to 40%, the “Tumor weight day 20” value is 2.34 ± 0.44 and the “Tumor size day 8” value turned out to be 86.93 ± 11.34. Moreover, in the series with B16 melanoma (35 mg/kg), the “Tumor size day 12” value is listed as 411.88 ± 71.52, the “Tumor size day 16” value was determined as 1234.65 ± 182.64 and the “Tumor size day 20” value amounted to 3061.34 ± 752.34. Also, in the series with B16 melanoma (70 mg/kg), the “IR (%) on tumor size” value is 54.8%, the “IR (%) on tumor weight” value amounted to 56%, the “Tumor weight day 20” value turned out to be 1.71 ± 0.18 and the “Tumor size day 8” value was determined as 86.21. Also, in the series with B16 melanoma (70 mg/kg), the “Tumor size day 12” value is reported as 320.06, the “Tumor size day 16” value amounted to 870.46 and the “Tumor size day 20” value came to 1897.88. In the series with B16 melanoma (140 mg/kg), the “IR (%) on tumor size” value came to 67.72%, the “IR (%) on tumor weight” value was 71.6%, the “Tumor weight day 20” value came to 1.11 ± 0.21 and the “Tumor size day 8” value stood at 86.94 ± 9.34. In the series with B16 melanoma (140 mg/kg), the “Tumor size day 12” value stood at 328.98 ± 76.57, the “Tumor size day 16” value is given as 695.75 ± 82.77 and the “Tumor size day 20” value is listed as 1353.91 ± 134.36. In the series with B16 melanoma (ascites and solid type tumor, compared with camptothecin), the “antitumor activity, comparison in words” value was “better antitumor activity on ascites tumor and solid type tumor”. In addition, the “toxicity and safety margin, comparison in words” value with B16 melanoma (mouse, in vivo) is “less toxicity and a wide range of safety margin”.

Turning to `CCC1(O)C(=O)OCc2c1cc1n(c2=O)Cc2c-1nc1ccccc1c2CCNCc1ccccc1` (racemic) [Example 26, dl-7-[2-(N-benzylamino)ethyl]camptothecin], in the series with L1210 leukemia (total dose 10 mg/kg), the 30 days survivor is listed as 0/6, the “ILS(%)” value is recorded as 72%, the “Survival days MST” value is reported as 15.67 days and the “B.W. Change” value is reported as -0.09 g. For the same molecule, in the series on L1210 leukemia (total dose 50 mg/kg), the 30 days survivor is 0/6, the “ILS(%)” value came to 75%, the “Survival days MST” value came out at 16.00 days and the “B.W. Change” value was -0.57 g.
